Test results from patent publication US11274083B2, “Substituted thiophenyl uracils, salts thereof and the use thereof as herbicidal agents” (Syngenta Crop Protection AG, priority 2017, dated 2022).

How the values were obtained:
Type in all cases: in vivo
Oryza sativa = test: Crop compatibility post-emergence, greenhouse pot test
Method: (§1) Seeds of mono- and dicotyledonous weed plants and crop plants were laid out in sandy loam soil in plastic or wood-fiber pots, covered with soil and grown under controlled growth conditions in a greenhouse. 2 to 3 weeks after sowing, the trial plants were treated at the one-leaf stage. The compounds of the invention formulated in the form of wettable powders (WP) or as emulsion concentrates (EC) were then sprayed onto the green parts of the plant as an aqueous suspension or emulsion with addition of 0.5% additive at a water application rate equivalent to 600 L/ha. After the trial plants had stood for about 3 weeks in the greenhouse, under optimal growth conditions, the effect of the preparations was scored visually by comparison with untreated controls. For example, 100% efficacy=plants have died, 0% efficacy=like control plants.
(§2) Crop plant compatibilities were also scored correspondingly.
(§3) The effects observed are reported here on selected crop plants by comparison, with the untreated controls (values in %).

Zea mays = test: as above
Method: as §1, §2, §3

Triticum aestivum = test: as above
Method: as §1, §2, §3

Veronica persica = test: Herbicidal action post-emergence, greenhouse pot test; details: application rate 20 g/ha
Method: as §1, with “plants. Tables A1 to A16 below show the efficacies of selected compounds of the general formula (I) according to tables I.1 to I.50 on various harmful plants and an application rate corresponding to 80 g/ha or lower that were obtained by the aforementioned trial method.” for “plants.”

Abutilon theophrasti = test: as above; details: application rate 20 g/ha
Method: as §1, with “plants. Tables A1 to A16 below show the efficacies of selected compounds of the general formula (I) according to tables I.1 to I.50 on various harmful plants and an application rate corresponding to 80 g/ha or lower that were obtained by the aforementioned trial method.” for “plants.”

Amaranthus retroflexus = test: as above; details: application rate 20 g/ha
Method: as §1, with “plants. Tables A1 to A16 below show the efficacies of selected compounds of the general formula (I) according to tables I.1 to I.50 on various harmful plants and an application rate corresponding to 80 g/ha or lower that were obtained by the aforementioned trial method.” for “plants.”

Viola tricolor = test: as above; details: application rate 20 g/ha
Method: as §1, with “plants. Tables A1 to A16 below show the efficacies of selected compounds of the general formula (I) according to tables I.1 to I.50 on various harmful plants and an application rate corresponding to 80 g/ha or lower that were obtained by the aforementioned trial method.” for “plants.”

Lolium rigidum [1] = test: Herbicidal action pre-emergence, greenhouse pot test; details: application rate 320 g/ha
Source text: Seeds of mono- and dicotyledonous weeds and crop plants were laid out in plastic or organic plant pots and covered with soil. The compounds of the invention formulated in the form of wettable powders (WP) or as emulsion concentrates (EC) were then applied to the surface of the covering soil as an aqueous suspension or emulsion with addition of 0.5% additive at a water application rate equivalent to 600 L/ha. After the treatment, the pots were placed in a greenhouse and kept under good growth conditions for the test plants. After about 3 weeks, the efficacy of the preparations was scored visually as a percentage by comparison with untreated controls. For example, 100% efficacy=plants have died. 0% efficacy=like control plants. Tables B1 to B17 below show the efficacies of selected compounds of the general formula (I) according to tables I.1 to I.50 on various harmful plants and an application rate corresponding to 320 g/ha or lower that were obtained by the aforementioned trial method.

Digitaria sanguinalis = test: Herbicidal action post-emergence, greenhouse pot test; details: application rate 20 g/ha
Echinochloa crus-galli = test: as above; details: application rate 20 g/ha
Method: as §1, with “plants. Tables A1 to A16 below show the efficacies of selected compounds of the general formula (I) according to tables I.1 to I.50 on various harmful plants and an application rate corresponding to 80 g/ha or lower that were obtained by the aforementioned trial method.” for “plants.”

Pharbitis purpurea = test: as above; details: application rate 20 g/ha
Method: as §1, with “plants. Tables A1 to A16 below show the efficacies of selected compounds of the general formula (I) according to tables I.1 to I.50 on various harmful plants and an application rate corresponding to 80 g/ha or lower that were obtained by the aforementioned trial method.” for “plants.”

Polygonum convolvulus = test: as above; details: application rate 20 g/ha
Method: as §1, with “plants. Tables A1 to A16 below show the efficacies of selected compounds of the general formula (I) according to tables I.1 to I.50 on various harmful plants and an application rate corresponding to 80 g/ha or lower that were obtained by the aforementioned trial method.” for “plants.”

Alopecurus myosuroides = test: as above; details: application rate 20 g/ha, scored visually after about 3 weeks vs untreated controls
Method: as §1, with “plants. Tables A1 to A16 below show the efficacies of selected compounds of the general formula (I) according to tables I.1 to I.50 on various harmful plants and an application rate corresponding to 80 g/ha or lower that were obtained by the aforementioned trial method.” for “plants.”

Stellaria media = test: as above; details: application rate 20 g/ha
Method: as §1, with “plants. Tables A1 to A16 below show the efficacies of selected compounds of the general formula (I) according to tables I.1 to I.50 on various harmful plants and an application rate corresponding to 80 g/ha or lower that were obtained by the aforementioned trial method.” for “plants.”

Setaria viridis = test: as above; details: application rate 20 g/ha
Method: as §1, with “plants. Tables A1 to A16 below show the efficacies of selected compounds of the general formula (I) according to tables I.1 to I.50 on various harmful plants and an application rate corresponding to 80 g/ha or lower that were obtained by the aforementioned trial method.” for “plants.”

Matricaria inodora = test: as above; details: application rate 20 g/ha
Method: as §1, with “plants. Tables A1 to A16 below show the efficacies of selected compounds of the general formula (I) according to tables I.1 to I.50 on various harmful plants and an application rate corresponding to 80 g/ha or lower that were obtained by the aforementioned trial method.” for “plants.”

Lolium rigidum [2] = test: as above; details: application rate 20 g/ha
Method: as §1, with “plants. Tables A1 to A16 below show the efficacies of selected compounds of the general formula (I) according to tables I.1 to I.50 on various harmful plants and an application rate corresponding to 80 g/ha or lower that were obtained by the aforementioned trial method.” for “plants.”

Row | SMILES | Oryza sativa (Efficacy in %) (Oryza sativa; application rate 20 g/ha) | Zea mays (Efficacy in %) (Zea mays; application rate 20 g/ha) | Triticum aestivum (Efficacy in %) (Triticum aestivum; application rate 20 g/ha) | Veronica persica (Efficacy in %) (Veronica persica) | Abutilon theophrasti (Efficacy in %) (Abutilon theophrasti) | Amaranthus retroflexus (Efficacy in %) (Amaranthus retroflexus) | Viola tricolor (Efficacy in %) (Viola tricolor) | Lolium rigidum (Efficacy in %) (Lolium rigidum [1]) | Digitaria sanguinalis (Efficacy in %) (Digitaria sanguinalis) | Triticum aestivum (Efficacy in %) (Triticum aestivum; application rate 5 g/ha) | Echinochloa crus-galli (Efficacy in %) (Echinochloa crus-galli) | Pharbitis purpurea (Efficacy in %) (Pharbitis purpurea) | Polygonum convolvulus (Efficacy in %) (Polygonum convolvulus) | Alopecurus myosuroides (Efficacy in %) (Alopecurus myosuroides) | Stellaria media (Efficacy in %) (Stellaria media) | Setaria viridis (Efficacy in %) (Setaria viridis) | Matricaria inodora (Efficacy in %) (Matricaria inodora) | Oryza sativa (Efficacy in %) (Oryza sativa; application rate 5 g/ha) | Lolium rigidum (Efficacy in %) (Lolium rigidum [2]) | Zea mays (Efficacy in %) (Zea mays; application rate 5 g/ha)
1 | CC(Sc1cc(-n2c(=O)cc(C(F)(F)F)n(C)c2=O)c(F)cc1Cl)C(=O)OCCC(=O)OCc1ccccc1 (stereo not shown) [I.1-6] | 0% | 10% | 0% | 100% | 100% | 100% | 100% |  |  |  |  |  |  |  |  |  |  |  |  | 
2 | CC(Sc1cc(-n2c(=O)cc(C(F)(F)F)n(C)c2=O)c(F)cc1Cl)C(=O)OCCC(=O)OCC1CC1 (stereo not shown) [I.1-7] |  |  |  |  |  |  |  | 90% |  |  |  |  |  |  |  |  |  |  |  | 
3 | CCOC(=O)COC(=O)C(C)Sc1cc(-n2c(=O)cc(C(F)(F)F)n(C)c2=O)c(F)cc1Cl (stereo not shown) [I.1-43] |  |  |  | 100% | 100% | 100% | 100% |  | 100% | 10% | 100% | 100% | 100% | 80% | 80% | 100% | 100% |  |  | 
4 | CCNC(=O)CCOC(=O)C(C)Sc1cc(-n2c(=O)cc(C(F)(F)F)n(C)c2=O)c(F)cc1Cl (stereo not shown) [I.1-153] |  |  |  | 100% | 100% | 100% | 100% |  | 100% |  | 100% | 100% | 100% | 90% | 100% | 100% | 100% | 10% | 80% | 
5 | CC(Sc1cc(-n2c(=O)cc(C(F)(F)F)n(C)c2=O)c(F)cc1Cl)C(=O)OCCC(=O)N(C)C (stereo not shown) [I.1-231] |  |  |  | 100% | 100% | 100% | 100% |  | 100% | 20% | 100% | 100% | 100% |  | 100% | 100% | 100% | 10% |  | 20%
6 | CCN(C)C(=O)CCOC(=O)C(C)Sc1cc(-n2c(=O)cc(C(F)(F)F)n(C)c2=O)c(F)cc1Cl (stereo not shown) [I.1-233] | 20% |  |  | 100% | 100% | 100% | 100% |  | 100% |  | 100% | 100% | 100% | 90% | 100% | 100% | 100% |  | 90% | 
7 | CCCOC(=O)CCOC(=O)C(CC)Sc1cc(-n2c(=O)cc(C(F)(F)F)n(C)c2=O)c(F)cc1Cl (stereo not shown) [I.2-8] | 0% | 0% | 0% | 100% | 100% | 100% | 100% |  | 100% |  | 100% | 100% | 100% |  | 100% | 100% | 100% |  |  | 
8 | CCC(Sc1cc(-n2c(=O)cc(C(F)(F)F)n(C)c2=O)c(F)cc1Cl)C(=O)OCC(C)(C)C(=O)OC (stereo not shown) [I.2-32] | 0% |  |  | 100% | 100% | 100% | 100% |  | 100% | 20% | 100% | 100% | 100% | 80% |  | 100% | 100% |  | 80% | 20%
9 | CCC(C)C(Sc1cc(-n2c(=O)cc(C(F)(F)F)n(C)c2=O)c(F)cc1Cl)C(=O)OCCC(=O)OC (stereo not shown) [I.5-2] |  |  |  | 100% | 100% | 100% | 100% |  | 80% | 20% | 100% | 100% | 100% | 80% | 100% | 100% | 100% |  |  | 
10 | CCOC(=O)CCOC(=O)C(Sc1cc(-n2c(=O)cc(C(F)(F)F)n(C)c2=O)c(F)cc1Cl)C(C)CC (stereo not shown) [I.5-3] |  |  |  | 100% | 100% | 100% | 100% |  | 80% | 20% | 100% | 100% | 100% | 80% | 100% | 100% | 100% |  |  | 
